Laboratory results reported in article PMC2795317 (Journal of medicinal chemistry, 2009).

Test system: MDA-MB-231 breast cancer cells
Assay: Western blot analysis of caspase-8/-3 processing and PARP cleavage
Format: cell-based
Details: 24 hours; for Concentration inducing processing of caspase-3 and -8 and cleavage of PARP: concentrations as low as

Compound | Processing of caspase-8 and -3 and cleavage of PARP | Concentration inducing processing of caspase-3 and -8 and cleavage of PARP
CN[C@@H](C)C(=O)N[C@H]1CCCC[C@H]2CC[C@@H](C(=O)N[C@@H]3CCCc4ccccc43)N2C1=O [Compound 8] | effectively induce processing of caspase-8 and -3 and cleavage of PARP in a dose-dependent manner | ≤ 10 nM
CN[C@@H](C)C(=O)N[C@H]1CCCC[C@H]2[C@@H](Cc3ccccc3)C[C@@H](C(=O)N[C@@H]3CCCc4ccccc43)N2C1=O [Compound 10] | effectively induce processing of caspase-8 and -3 and cleavage of PARP in a dose-dependent manner | ≤ 10 nM
CN[C@@H](C)C(=O)N[C@H]1CCCC[C@H]2CC[C@@H](C(=O)NC(c3ccccc3)c3ccccc3)N2C1=O [Compound 7] | effectively induce processing of caspase-8 and -3 and cleavage of PARP in a dose-dependent manner | –
